The results in this text go back to patent US20250145606A1 (Arcus Biosciences, Inc., priority 2023, published 2025).

pIC50: −log10 of the molar value.

One assay concerns the target c-Kit (Homo sapiens (Human), UniProt P10721). As to the kind of experiment: Inhibition of c-Kit kinase activity (HTRF KinEASE-TK). The class given is biochemical. The following applies: biochemical, HTRF KinEASE-TK. In a few lines:
(§1)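 Phosphorylation of biotinylated TK peptide read by HTRF (665/620 nm ratio) after 120 min at rt, following 1 h enzyme–compound preincubation. ATP (2× mix): 20 μM CSF1R, 16 μM c-Kit, 40 μM PDGFRβ, 1 μM PDGFRα; MgCl2 10 mM except c-Kit 5 mM. 22-point 1:2 titration; four-parameter IC50.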

The subject of assay [1] is Phospho-KIT (Y703) in M07e cells. As to the kind of experiment: Phospho-KIT (Y703) cellular assay in M07e cells. The format is cell-based. The conditions noted are these: M-07e; Phospho-KIT (Y703), M07e cells; read-out: M07e Cell IC50. The protocol:
Phospho-KIT (Y703) Cellular Assay in M07e Cells
The day prior to assay, M07e cells (DSMZ, catalog #ACC 104) were serum starved. Cells were centrifuged and cell pellet resuspended in OptiMEM (Gibco, catalog #31985062) to a density of 1×10^6-2.5×10^6 cells per mL. Cells were then incubated overnight at 5% CO2 and 37° C. in an appropriately sized flask. On the day of the experiment, an 11 point, half log titration of test compound was pre-dispensed into 96-well round bottom polypropylene plates (Corning, catalog #3365). The serum starved M07e cells were centrifuged and resuspended to a cell density of 1×10^6 cells per mL with DPBS (Gibco, catalog #14190-144). Live/Dead Green Fixable viability dye (Invitrogen, catalog #L34970) was added as 1 μL/1 mL of cell suspension. Cells were then incubated in the dark at 4° C. for 30 min. Cells were washed by centrifugation and resuspension with DPBS+0.5% BSA (Gemini Bio Products, catalog #700110/100, 30% BSA solution). Cells were resuspended, separated into two equal volumes and again centrifuged. Cell pellets were resuspended with OptiMEM™ to a cell density of 1×10^6 cells per mL. Cells were then added to the appropriate compound plate at 100,000 cells per well in 100 μL and mixed. Plates were incubated at 5% CO2 and 37° C. for 50 min. Stem Cell Factor, SCF (R&D Systems, #255-SC/CF) was diluted in OptiMEM to 1 μg/mL and added to all wells as 10 μL for a final concentration of 90.9 ng/mL. Plates were incubated at 5% CO2 and 37° C. for 10 min. Incubation was stopped by addition of 110 μL 4% paraformaldehyde solution in PBS (Life Technologies, catalog #J19943.K2). Plates were incubated at rt for at least 15 min. Plates were then centrifuged and supernatant removed by flicking. Cells were washed once by resuspension in 200 μL DPBS+0.5% BSA, centrifuged, and supernatant removed by flicking. Cells were resuspended in 100 μL 1X Permeabilization buffer (Invitrogen, catalog #88882400) and plates incubated at rt for 30 min. Plates were centrifuged, supernatant removed by flicking, and cells resuspended in 50 μL primary antibody, anti-phospho-c-KIT (Tyr703) (Cell Signaling, catalog #3073), diluted to 1 μg/mL with permeabilization buffer. Plates were incubated at rt for 1 h. Plates were centrifuged, supernatant removed, and cells resuspended with 200 μL DPBS+0.5% BSA. Plates were again centrifuged, supernatant removed by flicking, and cells resuspended in 100 μL secondary antibody, goat anti-rabbit AlexaFluor647 (AF647) (Invitrogen, catalog #A21244) diluted to 1 μg/mL with DPBS+0.5% BSA. Plates were incubated at rt for 30 min. followed by centrifugation, supernatant removal, and cell resuspension with 200 μL DPBS+0.5% BSA. Cells were washed again by centrifugation, supernatant removal, and cell resuspension with 200 μL DPBS+0.5% BSA. Samples were then read by flow cytometry. The Forward: Side scatter plot was gated and that population was gated for live cells based on the Live/Dead Green staining. The geometric mean of AF647 of the live cell population was recorded. Percentage maximum activity in each test well was calculated based on DMSO (100% activity) and positive control treated cell wells (0% activity). The potencies (IC50 values) of test compounds were determined using a standard 4-parameter non-linear regression fit.

A further assay has as its target CSF1R (Homo sapiens (Human), UniProt P07333). Put plainly: Inhibition of CSF1R kinase activity (HTRF KinEASE-TK). The following applies: biochemical, HTRF KinEASE-TK. In a few lines: as §1
Background: TR-FRET usually uses a lanthanide donor and a delayed reading to cut background.

As a reminder, the pIC50 is the IC50 on a negative log10 scale, so that one unit is a factor of ten.

c-Kit, sequence (P10721 26-976): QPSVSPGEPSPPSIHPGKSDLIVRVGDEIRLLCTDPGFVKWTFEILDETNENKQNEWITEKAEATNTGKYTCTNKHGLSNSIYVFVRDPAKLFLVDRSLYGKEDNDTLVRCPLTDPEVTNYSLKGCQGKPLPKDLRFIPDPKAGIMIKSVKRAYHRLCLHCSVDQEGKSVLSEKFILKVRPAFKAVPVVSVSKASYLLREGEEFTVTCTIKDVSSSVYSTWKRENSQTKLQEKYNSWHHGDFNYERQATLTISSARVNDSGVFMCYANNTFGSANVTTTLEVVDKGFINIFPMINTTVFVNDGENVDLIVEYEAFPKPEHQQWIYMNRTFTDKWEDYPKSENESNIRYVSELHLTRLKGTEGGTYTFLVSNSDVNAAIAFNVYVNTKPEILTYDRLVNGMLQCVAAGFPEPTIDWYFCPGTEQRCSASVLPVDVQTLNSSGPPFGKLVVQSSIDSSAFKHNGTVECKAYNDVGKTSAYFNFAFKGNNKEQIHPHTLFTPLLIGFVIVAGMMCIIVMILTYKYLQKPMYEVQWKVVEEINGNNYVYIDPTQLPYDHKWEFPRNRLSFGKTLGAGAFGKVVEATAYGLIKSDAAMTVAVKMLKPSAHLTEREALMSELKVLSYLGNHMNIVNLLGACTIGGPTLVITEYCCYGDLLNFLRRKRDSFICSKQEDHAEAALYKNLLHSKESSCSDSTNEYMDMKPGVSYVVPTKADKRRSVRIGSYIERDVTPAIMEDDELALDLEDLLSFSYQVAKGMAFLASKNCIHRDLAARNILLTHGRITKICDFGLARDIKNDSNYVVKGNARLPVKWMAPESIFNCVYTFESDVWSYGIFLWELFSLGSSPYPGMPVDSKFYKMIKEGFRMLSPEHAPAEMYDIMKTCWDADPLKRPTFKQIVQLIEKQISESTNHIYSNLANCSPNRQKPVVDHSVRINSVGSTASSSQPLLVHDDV
CSF1R, sequence (P07333 20-972): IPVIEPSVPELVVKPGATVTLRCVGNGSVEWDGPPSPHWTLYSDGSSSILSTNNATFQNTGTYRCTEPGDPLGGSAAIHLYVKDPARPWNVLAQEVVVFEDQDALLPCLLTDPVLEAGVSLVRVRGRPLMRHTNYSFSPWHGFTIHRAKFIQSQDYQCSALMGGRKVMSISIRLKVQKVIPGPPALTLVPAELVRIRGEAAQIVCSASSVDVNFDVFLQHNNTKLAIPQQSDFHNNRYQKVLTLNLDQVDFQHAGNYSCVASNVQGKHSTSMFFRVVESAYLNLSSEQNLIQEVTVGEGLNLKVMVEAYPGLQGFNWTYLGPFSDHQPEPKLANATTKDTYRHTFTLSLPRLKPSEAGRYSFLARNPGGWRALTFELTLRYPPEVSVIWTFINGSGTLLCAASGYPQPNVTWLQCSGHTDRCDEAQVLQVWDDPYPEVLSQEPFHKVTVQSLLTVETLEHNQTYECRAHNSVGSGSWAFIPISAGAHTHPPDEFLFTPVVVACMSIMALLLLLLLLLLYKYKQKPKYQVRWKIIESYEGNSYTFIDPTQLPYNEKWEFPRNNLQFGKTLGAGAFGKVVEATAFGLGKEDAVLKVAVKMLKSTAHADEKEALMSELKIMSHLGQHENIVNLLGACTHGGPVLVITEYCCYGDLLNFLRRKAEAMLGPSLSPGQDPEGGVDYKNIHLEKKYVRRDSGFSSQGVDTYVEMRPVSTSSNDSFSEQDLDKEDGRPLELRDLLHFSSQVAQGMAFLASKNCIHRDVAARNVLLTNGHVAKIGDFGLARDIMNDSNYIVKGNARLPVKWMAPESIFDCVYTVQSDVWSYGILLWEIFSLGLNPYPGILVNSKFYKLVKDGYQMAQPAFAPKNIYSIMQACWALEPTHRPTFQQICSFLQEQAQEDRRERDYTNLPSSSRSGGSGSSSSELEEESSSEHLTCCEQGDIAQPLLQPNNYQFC

With `Cc1ncc(C(=O)Nc2cc(C(=O)Nc3cnc(OC(F)F)cn3)c(F)cc2C)s1` [Example 15, N-[5-[[5-(Difluoromethoxy)pyrazin-2-yl]carbamoyl]-4-fluoro-2-methylphenyl]-2-methyl-1,3-thiazole-5-carboxamide], the pIC50 at c-Kit is over 7.00; in assay [1], over 7.00; on CSF1R, under 6.00.

For the compound `Cc1ncc(C(=O)Nc2cc(C(=O)Nc3ccnc(C#N)c3)c(F)cc2C)s1` [Example 18, N-[5-[(2-Cyanopyridin-4-yl)carbamoyl]-4-fluoro-2-methylphenyl]-2-methyl-1,3-thiazole-5-carboxamide], the pIC50 at c-Kit was over 7.00; in assay [1], 6.00 to 7.00; against CSF1R, under 6.00.

On to `Cc1ncc(C(=O)Nc2cc(C(=O)Nc3ccc(C#N)cn3)c(F)cc2C)s1` [Example 19, N-[5-[(5-Cyanopyridin-2-yl)carbamoyl]-4-fluoro-2-methylphenyl]-2-methyl-1,3-thiazole-5-carboxamide], for which the pIC50 on c-Kit is 6.00 to 7.00; in assay [1], 6.00 to 7.00; on CSF1R, under 6.00.

Regarding `Cc1ncc(C(=O)Nc2cc(C(=O)Nc3ccnc(OC(F)F)c3)c(F)cc2C)s1` [Example 21, N-[5-[[2-(Difluoromethoxy)pyridin-4-yl]carbamoyl]-4-fluoro-2-methylphenyl]-2-methyl-1,3-thiazole-5-carboxamide], the pIC50 was over 7.00 at c-Kit, over 7.00 in assay [1] and under 6.00 on CSF1R.

As to `Cc1ncc(C(=O)Nc2cc(C(=O)Nc3ccnc(C(F)F)c3)c(F)cc2C)s1` [Example 22, N-[5-[[2-(Difluoromethyl)pyridin-4-yl]carbamoyl]-4-fluoro-2-methylphenyl]-2-methyl-1,3-thiazole-5-carboxamide], the negative-log IC50 (pIC50) against c-Kit is over 7.00; in assay [1] it was 6.00 to 7.00; on CSF1R, under 6.00.

In the case of `COc1cnc(NC(=O)c2cc(NC(=O)c3cnc(C)s3)c(C)cc2F)cn1` [Example 23, N-[4-Fluoro-5-[(5-methoxypyrazin-2-yl)carbamoyl]-2-methylphenyl]-2-methyl-1,3-thiazole-5-carboxamide], the negative-log IC50 (pIC50) on c-Kit is over 7.00; in assay [1] it was 6.00 to 7.00; against CSF1R, under 6.00.

With `CCc1cnc(NC(=O)c2cc(NC(=O)c3cnc(C)s3)c(C)cc2F)cn1` [Example 27, N-[5-[(5-ethylpyrazin-2-yl)carbamoyl]-4-fluoro-2-methylphenyl]-2-methyl-1,3-thiazole-5-carboxamide], the pIC50 is over 7.00 at c-Kit, over 7.00 in assay [1] and under 6.00 on CSF1R.

With `Cc1ncc(C(=O)Nc2cc(C(=O)Nc3cnc(C(C)C)cn3)c(F)cc2C)s1` [Example 28, N-[4-fluoro-2-methyl-5-[(5-propan-2-ylpyrazin-2-yl)carbamoyl]phenyl]-2-methyl-1,3-thiazole-5-carboxamide], the pIC50 is over 7.00 against c-Kit, over 7.00 in assay [1] and under 6.00 against CSF1R.

Take `Cc1ncc(C(=O)Nc2cc(C(=O)Nc3cnc(C(F)(F)F)cn3)c(F)cc2C)s1` [Example 29, N-[4-fluoro-2-methyl-5-[[5-(trifluoromethyl)pyrazin-2-yl]carbamoyl]phenyl]-2-methyl-1,3-thiazole-5-carboxamide]: the pIC50 against c-Kit was over 7.00; in assay [1] it was over 7.00; against CSF1R it was under 6.00.

On to `Cc1ncc(C(=O)Nc2cc(C(=O)N[C@H]3C[C@@H]3c3ccccc3)c(F)cc2C)s1` [Example 30, N-[4-Fluoro-2-methyl-5-[[(1S,2R)-2-phenylcyclopropyl]carbamoyl]phenyl]-2-methyl-1,3-thiazole-5-carboxamide], for which the pIC50 against c-Kit was 6.00 to 7.00; in assay [1], over 7.00; at CSF1R, under 6.00.

On to `Cc1ncc(C(=O)Nc2cc(C(=O)Nc3cncc(C(F)(F)F)n3)c(F)cc2C)s1` [Example 33, N-[4-fluoro-2-methyl-5-[[6-(trifluoromethyl)pyrazin-2-yl]carbamoyl]phenyl]-2-methyl-1,3-thiazole-5-carboxamide], for which the pIC50 against c-Kit was over 7.00; in assay [1], 6.00 to 7.00; against CSF1R, under 6.00.

Consider `Cc1ncc(C(=O)Nc2cc(C(=O)Nc3cncc(CC4CC4)n3)c(F)cc2C)s1` [Example 34, N-[5-[[6-(cyclopropylmethyl)pyrazin-2-yl]carbamoyl]-4-fluoro-2-methylphenyl]-2-methyl-1,3-thiazole-5-carboxamide], for which the pIC50 against c-Kit was over 7.00; in assay [1] it was over 7.00; against CSF1R, under 6.00.

As to `Cc1ncc(C(=O)Nc2cc(C(=O)Nc3cncc(C4CC4)c3)c(F)cc2C)s1` [Example 53, N-[5-[(5-cyclopropylpyridin-3-yl)carbamoyl]-4-fluoro-2-methylphenyl]-2-methyl-1,3-thiazole-5-carboxamide], the pIC50 was over 7.00 against c-Kit, over 7.00 in assay [1] and under 6.00 at CSF1R.

In the case of `Cc1ncc(C(=O)Nc2cc(C(=O)Nc3ccc(C(F)F)nc3)c(F)cc2C)s1` [Example 54, N-[5-[[6-(difluoromethyl)pyridin-3-yl]carbamoyl]-4-fluoro-2-methylphenyl]-2-methyl-1,3-thiazole-5-carboxamide], the pIC50 (against c-Kit; in assay [1]) was over 7.00 each time.

For `Cc1ncc(C(=O)Nc2cc(C(=O)Nc3cccc(C(F)(F)F)n3)c(F)cc2C)s1` [Example 55, N-[4-fluoro-2-methyl-5-[[6-(trifluoromethyl)pyridin-2-yl]carbamoyl]phenyl]-2-methyl-1,3-thiazole-5-carboxamide], the pIC50 against c-Kit was over 7.00; in assay [1], over 7.00; against CSF1R, under 6.00.

For the compound `Cc1ncc(C(=O)Nc2cc(C(=O)Nc3cnc(C(F)F)cn3)c(F)cc2C)s1` [Example 56, N-[5-[[5-(difluoromethyl)pyrazin-2-yl]carbamoyl]-4-fluoro-2-methylphenyl]-2-methyl-1,3-thiazole-5-carboxamide], the pIC50 against c-Kit was 6.00 to 7.00; in assay [1], 6.00 to 7.00; on CSF1R it was under 6.00.

For the compound `Cc1ncc(C(=O)Nc2cc(C(=O)Nc3cncc(C(F)F)c3)c(F)cc2C)s1` [Example 76, N-[5-[[5-(difluoromethyl)pyridin-3-yl]carbamoyl]-4-fluoro-2-methylphenyl]-2-methyl-1,3-thiazole-5-carboxamide], the pIC50 against c-Kit is over 7.00; in assay [1], over 7.00; against CSF1R it was under 6.00.

As to `Cc1ncc(C(=O)Nc2cc(C(=O)Nc3cncc(C(F)(F)F)c3)c(F)cc2C)s1` [Example 77, N-[4-fluoro-2-methyl-5-[[5-(trifluoromethyl)pyridin-3-yl]carbamoyl]phenyl]-2-methyl-1,3-thiazole-5-carboxamide], the pIC50 was over 7.00 on c-Kit, over 7.00 in assay [1] and under 6.00 on CSF1R.

With `Cc1ncc(C(=O)Nc2cc(C(=O)Nc3cncc(CC(F)(F)F)c3)c(F)cc2C)s1` [Example 81, N-[4-fluoro-2-methyl-5-[[5-(2,2,2-trifluoroethyl)pyridin-3-yl]carbamoyl]phenyl]-2-methyl-1,3-thiazole-5-carboxamide], the values for the pIC50 (on c-Kit; in assay [1]; against CSF1R) were over 7.00, over 7.00 and under 6.00, respectively.
